Laboratory results reported in the supplement of paper PMC10307832.

Key:
Assay in all cases: relative viability (nuclei count vs DMSO), 5 days (fraction); higher = more cells survive
LCLC-97TM1 = test system: LCLC-97TM1
Outline: (§1)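 Relative viability divides the nuclei count in treated wells by that in vehicle wells. Lung cancer cell lines were seeded in 1536-well plates, dosed by pin tool the next day, and fixed and stained after 5 days in one step with final 0.05% Triton X-100, 1% formaldehyde and 1 ug/ml Hoechst. Dosing was a single drug or a fixed anchor-drug dose plus five library-drug doses (not always all listed) in √10 steps, and values are medians of duplicate plates imaged at 4×.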

HARA = test system: HARA
Outline: as §1

NCI-H1793 = test system: NCI-H1793
Outline: as §1

NCI-H1666 = test system: NCI-H1666
Outline: as §1

H3255 = test system: H3255
Outline: as §1

NCI-H441 = test system: NCI-H441
Outline: as §1

HOP-62 = test system: HOP-62
Outline: as §1

NCI-H596 = test system: NCI-H596
Outline: as §1

LXF-289 = test system: LXF-289
Outline: as §1

NCI-H2087 = test system: NCI-H2087
Outline: as §1

COR-L23 = test system: COR-L23
Outline: as §1

NCI-H1437 = test system: NCI-H1437
Outline: as §1

EPLC-272H = test system: EPLC-272H
Outline: as §1

NCI-H1650 = test system: NCI-H1650
Outline: as §1

NCI-H1395 = test system: NCI-H1395
Outline: as §1

ChaGo-K-1 = test system: ChaGo-K-1
Outline: as §1

PC-14 = test system: PC-14
Outline: as §1

HCC-78 = test system: HCC-78
Outline: as §1

NCI-H2085 = test system: NCI-H2085
Outline: as §1

NCI-H3122 = test system: NCI-H3122
Outline: as §1

NCI-H2126 = test system: NCI-H2126
Outline: as §1

NCI-H1944 = test system: NCI-H1944
Outline: as §1

NCI-H661 = test system: NCI-H661
Outline: as §1

Cc1cn(-c2cc(NC(=O)c3ccc(C)c(Nc4nccc(-c5cccnc5)n4)c3)cc(C(F)(F)F)c2)cn1 [Nilotinib] + O=C(c1cc(Cc2n[nH]c(=O)c3ccccc23)ccc1F)N1CCN(C(=O)C2CC2)CC1 [Olaparib] (partner 8 µM) was tested, and the relative viability (LCLC-97TM1; first compound 0.001 µM) was 0.339, the relative viability (LCLC-97TM1; first compound 0.003162 µM) was 0.467 and the relative viability (LCLC-97TM1; first compound 0.01 µM) was 0.461. The relative viability (LCLC-97TM1; first compound 0.03162 µM) was 0.446, the relative viability (LCLC-97TM1; first compound 0.1 µM) was 0.343 and the relative viability (HARA; first compound 0.001 µM) was 0.639. For the same molecule, the relative viability (HARA; first compound 0.003162 µM) was 0.867, the relative viability (HARA; first compound 0.01 µM) was 0.676 and the relative viability (HARA; first compound 0.03162 µM) was 0.535. The relative viability (HARA; first compound 0.1 µM) was 0.747, the relative viability (NCI-H1793; first compound 0.001 µM) was 0.863 and the relative viability (NCI-H1793; first compound 0.003162 µM) was 0.822. The relative viability (NCI-H1793; first compound 0.01 µM) was 1.13, the relative viability (NCI-H1793; first compound 0.03162 µM) was 0.706 and the relative viability (NCI-H1793; first compound 0.1 µM) was 0.677. The relative viability (NCI-H1666; first compound 0.001 µM) was 0.71, the relative viability (NCI-H1666; first compound 0.003162 µM) was 0.805 and the relative viability (NCI-H1666; first compound 0.01 µM) was 0.803. For the same molecule, the relative viability (NCI-H1666; first compound 0.03162 µM) was 0.778, the relative viability (NCI-H1666; first compound 0.1 µM) was 0.754 and the relative viability (H3255; first compound 0.001 µM) was 0.533. It also gave a relative viability (H3255; first compound 0.003162 µM) of 0.561, a relative viability (H3255; first compound 0.01 µM) of 0.572 and a relative viability (H3255; first compound 0.03162 µM) of 0.474. The relative viability (H3255; first compound 0.1 µM) was 0.501, the relative viability (NCI-H441; first compound 0.001 µM) was 0.419 and the relative viability (NCI-H441; first compound 0.003162 µM) was 0.807. The relative viability (NCI-H441; first compound 0.01 µM) was 0.533, the relative viability (NCI-H441; first compound 0.03162 µM) was 0.431 and the relative viability (NCI-H441; first compound 0.1 µM) was 0.534. For the same molecule, the relative viability (HOP-62; first compound 0.003162 µM) was 0.38, the relative viability (HOP-62; first compound 0.01 µM) was 0.393 and the relative viability (HOP-62; first compound 0.03162 µM) was 0.403. It also gave a relative viability (HOP-62; first compound 0.1 µM) of 0.352, a relative viability (NCI-H596; first compound 0.001 µM) of 0.651 and a relative viability (NCI-H596; first compound 0.003162 µM) of 0.702. The relative viability (NCI-H596; first compound 0.01 µM) was 0.711, the relative viability (NCI-H596; first compound 0.03162 µM) was 0.646 and the relative viability (NCI-H596; first compound 0.1 µM) was 0.671. For the same molecule, the relative viability (LXF-289; first compound 0.001 µM) was 1.07, the relative viability (LXF-289; first compound 0.003162 µM) was 1.37 and the relative viability (LXF-289; first compound 0.01 µM) was 1.26. For the same molecule, the relative viability (LXF-289; first compound 0.03162 µM) was 1, the relative viability (LXF-289; first compound 0.1 µM) was 1.06 and the relative viability (NCI-H2087; first compound 0.001 µM) was 0.529. It also gave a relative viability (NCI-H2087; first compound 0.003162 µM) of 0.672, a relative viability (NCI-H2087; first compound 0.01 µM) of 0.592 and a relative viability (NCI-H2087; first compound 0.03162 µM) of 0.552. It also gave a relative viability (NCI-H2087; first compound 0.1 µM) of 0.514, a relative viability (COR-L23; first compound 0.001 µM) of 0.356 and a relative viability (COR-L23; first compound 0.003162 µM) of 0.319. It also gave a relative viability (COR-L23; first compound 0.01 µM) of 0.396, a relative viability (COR-L23; first compound 0.03162 µM) of 0.306 and a relative viability (COR-L23; first compound 0.1 µM) of 0.288. For the same molecule, the relative viability (NCI-H1437; first compound 0.001 µM) was 0.603, the relative viability (NCI-H1437; first compound 0.003162 µM) was 0.687 and the relative viability (NCI-H1437; first compound 0.01 µM) was 0.654. The relative viability (NCI-H1437; first compound 0.03162 µM) was 0.548, the relative viability (NCI-H1437; first compound 0.1 µM) was 0.559 and the relative viability (EPLC-272H; first compound 0.001 µM) was 0.605. For the same molecule, the relative viability (EPLC-272H; first compound 0.003162 µM) was 0.746, the relative viability (EPLC-272H; first compound 0.01 µM) was 0.696 and the relative viability (EPLC-272H; first compound 0.03162 µM) was 0.448. The relative viability (EPLC-272H; first compound 0.1 µM) was 0.513, the relative viability (NCI-H1650; first compound 0.001 µM) was 0.776 and the relative viability (NCI-H1650; first compound 0.003162 µM) was 0.948. For the same molecule, the relative viability (NCI-H1650; first compound 0.01 µM) was 0.777, the relative viability (NCI-H1650; first compound 0.03162 µM) was 0.756 and the relative viability (NCI-H1650; first compound 0.1 µM) was 1.08. The relative viability (NCI-H1395; first compound 0.001 µM) was 0.472, the relative viability (NCI-H1395; first compound 0.01 µM) was 0.473 and the relative viability (NCI-H1395; first compound 0.03162 µM) was 0.493. The relative viability (NCI-H1395; first compound 0.1 µM) was 0.455, the relative viability (ChaGo-K-1; first compound 0.001 µM) was 0.419 and the relative viability (ChaGo-K-1; first compound 0.003162 µM) was 0.476. It also gave a relative viability (ChaGo-K-1; first compound 0.01 µM) of 0.478, a relative viability (ChaGo-K-1; first compound 0.03162 µM) of 0.464 and a relative viability (ChaGo-K-1; first compound 0.1 µM) of 0.412. It also gave a relative viability (PC-14; first compound 0.001 µM) of 0.266, a relative viability (PC-14; first compound 0.003162 µM) of 0.253 and a relative viability (PC-14; first compound 0.01 µM) of 0.264. For the same molecule, the relative viability (PC-14; first compound 0.03162 µM) was 0.264, the relative viability (PC-14; first compound 0.1 µM) was 0.339 and the relative viability (HCC-78; first compound 0.001 µM) was 0.748. The relative viability (HCC-78; first compound 0.003162 µM) was 0.602, the relative viability (HCC-78; first compound 0.01 µM) was 0.877 and the relative viability (HCC-78; first compound 0.03162 µM) was 0.768. For the same molecule, the relative viability (HCC-78; first compound 0.1 µM) was 0.752, the relative viability (NCI-H2085; first compound 0.001 µM) was 0.747 and the relative viability (NCI-H2085; first compound 0.003162 µM) was 0.834. It also gave a relative viability (NCI-H2085; first compound 0.01 µM) of 0.797, a relative viability (NCI-H2085; first compound 0.03162 µM) of 0.889 and a relative viability (NCI-H2085; first compound 0.1 µM) of 0.684. For the same molecule, the relative viability (NCI-H3122; first compound 0.001 µM) was 0.591, the relative viability (NCI-H3122; first compound 0.003162 µM) was 0.688 and the relative viability (NCI-H3122; first compound 0.01 µM) was 0.848. For the same molecule, the relative viability (NCI-H3122; first compound 0.03162 µM) was 0.515, the relative viability (NCI-H3122; first compound 0.1 µM) was 0.721 and the relative viability (NCI-H2126; first compound 0.001 µM) was 0.902. It also gave a relative viability (NCI-H2126; first compound 0.003162 µM) of 1.03, a relative viability (NCI-H2126; first compound 0.01 µM) of 1.11 and a relative viability (NCI-H2126; first compound 0.03162 µM) of 0.876. The relative viability (NCI-H2126; first compound 0.1 µM) was 0.83, the relative viability (NCI-H1944; first compound 0.001 µM) was 0.379 and the relative viability (NCI-H1944; first compound 0.003162 µM) was 0.397. The relative viability (NCI-H1944; first compound 0.01 µM) was 0.462, the relative viability (NCI-H1944; first compound 0.03162 µM) was 0.435 and the relative viability (NCI-H1944; first compound 0.1 µM) was 0.45. The relative viability (NCI-H661; first compound 0.001 µM) was 0.754, the relative viability (NCI-H661; first compound 0.003162 µM) was 0.893 and the relative viability (NCI-H661; first compound 0.01 µM) was 0.949. For the same molecule, the relative viability (NCI-H661; first compound 0.03162 µM) was 0.672 and the relative viability (NCI-H661; first compound 0.1 µM) was 0.748.
